Test results reported in ChEMBL document CHEMBL1275577, “Study of the in vitro activities of rifaximin and comparator agents against 536 anaerobic intestinal bacteria from the perspective of potential utility in pathology involving bowel flora” (Antimicrob Agents Chemother, 2009).
In brackets after ≈: the same amount, converted by molar mass.

Legend:
Fusobacterium mortiferum [1] = assay: Antimicrobial activity against Fusobacterium mortiferum by Wadsworth agar dilution method; type: functional
[2] = tested on: Lactiplantibacillus plantarum; assay: Antimicrobial activity against Lactobacillus plantarum by Wadsworth agar dilution method in presence of beta-lactamase inhibitor Sulbactam; type: functional
Ruminococcus torques = assay: Antimicrobial activity against Ruminococcus torques by Wadsworth agar dilution method in presence of beta-lactamase inhibitor Sulbactam; type: functional; conditions: Mediterraneibacter torques
[3] = tested on: Porphyromonas asaccharolytica; assay: Antimicrobial activity against Porphyromonas asaccharolyticus by Wadsworth agar dilution method in presence of beta-lactamase inhibitor Sulbactam; type: functional
[4] = tested on: Peptoniphilus asaccharolyticus; assay: Antimicrobial activity against Peptoniphilus asaccharolyticus by Wadsworth agar dilution method in presence of beta-lactamase inhibitor Sulbactam; type: functional
Fusobacterium nucleatum = assay: Antimicrobial activity against Fusobacterium nucleatum by Wadsworth agar dilution method in presence of beta-lactamase inhibitor Sulbactam; type: functional
Porphyromonas = assay: Antimicrobial activity against Porphyromonas sp. by Wadsworth agar dilution method in presence of beta-lactamase inhibitor Sulbactam; type: functional
Bifidobacterium breve = assay: Antimicrobial activity against Bifidobacterium breve by Wadsworth agar dilution method in presence of beta-lactamase inhibitor Sulbactam; type: functional
Clostridium spiroforme = assay: Antimicrobial activity against Clostridium spiroforme by Wadsworth agar dilution method in presence of beta-lactamase inhibitor Sulbactam; type: functional; conditions: Thomasclavelia spiroformis
Eubacterium saburreum = assay: Antimicrobial activity against Eubacterium saburreum by Wadsworth agar dilution method in presence of beta-lactamase inhibitor Sulbactam; type: functional; conditions: Lachnoanaerobaculum saburreum
Clostridium leptum = assay: Antimicrobial activity against Clostridium leptum by Wadsworth agar dilution method in presence of beta-lactamase inhibitor Sulbactam; type: functional
[5] = tested on: Paraclostridium bifermentans; assay: Antimicrobial activity against Clostridium bifermentans by Wadsworth agar dilution method in presence of beta-lactamase inhibitor Sulbactam; type: functional
Fusobacterium mortiferum [6] = assay: Antimicrobial activity against Clostridium rectum by Wadsworth agar dilution method in presence of beta-lactamase inhibitor Sulbactam; type: functional
Parvimonas micra = assay: Antimicrobial activity against Peptostreptococcus micros by Wadsworth agar dilution method in presence of beta-lactamase inhibitor Sulbactam; type: functional
Anaerococcus tetradius = assay: Antimicrobial activity against Anaerococcus tetradius by Wadsworth agar dilution method in presence of beta-lactamase inhibitor Sulbactam; type: functional
Bacteroides stercoris = assay: Antimicrobial activity against Bacteroides stercoris by Wadsworth agar dilution method in presence of beta-lactamase inhibitor Sulbactam; type: functional
Bifidobacterium dentium = assay: Antimicrobial activity against Bifidobacterium dentium by Wadsworth agar dilution method in presence of beta-lactamase inhibitor Sulbactam; type: functional
Porphyromonas somerae = assay: Antimicrobial activity against Porphyromonas somerae by Wadsworth agar dilution method in presence of beta-lactamase inhibitor Sulbactam; type: functional
Bifidobacterium bifidum = assay: Antimicrobial activity against Bifidobacterium bifidum by Wadsworth agar dilution method in presence of beta-lactamase inhibitor Sulbactam; type: functional
Bifidobacterium longum = assay: Antimicrobial activity against Bifidobacterium longum by Wadsworth agar dilution method in presence of beta-lactamase inhibitor Sulbactam; type: functional
[7] = tested on: Clostridium paraputrificum; assay: Antimicrobial activity against Clostridium paraputrificum by Wadsworth agar dilution method in presence of beta-lactamase inhibitor Sulbactam; type: functional
Bacteroides fragilis = assay: Antimicrobial activity against Bacteroides fragilis by Wadsworth agar dilution method in presence of beta-lactamase inhibitor Sulbactam; type: functional
Collinsella aerofaciens = assay: Antimicrobial activity against Colinsella aerofaciens by Wadsworth agar dilution method in presence of beta-lactamase inhibitor Sulbactam; type: functional
[Clostridium] innocuum = Antimicrobial activity against Clostridium innocuum by Wadsworth agar dilution method in presence of beta-lactamase inhibitor Sulbactam; type: functional
Finegoldia magna = assay: Antimicrobial activity against Finegoldia magna by Wadsworth agar dilution method in presence of beta-lactamase inhibitor Sulbactam; type: functional
Tissierella praeacuta = assay: Antimicrobial activity against Clostridium hastiforme by Wadsworth agar dilution method in presence of beta-lactamase inhibitor Sulbactam; type: functional
Clostridium sporogenes = assay: Antimicrobial activity against Clostridium sporogenes by Wadsworth agar dilution method in presence of beta-lactamase inhibitor Sulbactam; type: functional
Propionibacterium avidum = assay: Antimicrobial activity against Propionibacterium avidum by Wadsworth agar dilution method in presence of beta-lactamase inhibitor Sulbactam; type: functional; conditions: Cutibacterium avidum
Clostridium cadaveris = assay: Antimicrobial activity against Clostridium cadaveris by Wadsworth agar dilution method in presence of beta-lactamase inhibitor Sulbactam; type: functional
Desulfovibrio piger = assay: Antimicrobial activity against Desulfovibrio piger by Wadsworth agar dilution method in presence of beta-lactamase inhibitor Sulbactam; type: functional
[8] = Antimicrobial activity against Bifidobacterium infantis by Wadsworth agar dilution method in presence of beta-lactamase inhibitor Sulbactam; type: functional, Bifidobacterium longum subsp. infantis; conditions: Bifidobacterium longum
[9] = tested on: Clostridium lactatifermentans; assay: Antimicrobial activity against Clostridium lactatifermentans by Wadsworth agar dilution method in presence of beta-lactamase inhibitor Sulbactam; type: functional; conditions: Anaerotignum lactatifermentans
[10] = tested on: Pseudoramibacter alactolyticus; assay: Antimicrobial activity against Eubacterium alactolyticum by Wadsworth agar dilution method in presence of beta-lactamase inhibitor Sulbactam; type: functional

CC1(C)S[C@@H]2[C@H](NC(=O)[C@H](N)c3ccccc3)C(=O)N2[C@H]1C(=O)O [AMPICILLIN]
MIC50 (Fusobacterium mortiferum [1]): 1 µg/mL (≈ 2.86 µM) | MIC90 (Fusobacterium mortiferum [1]): 4 µg/mL (≈ 11.4 µM) | MIC [2]: 0.25 µg/mL | MIC50 [2]: 0.25 µg/mL | MIC90 [2]: 2 µg/mL | MIC (Ruminococcus torques): 0.25 µg/mL | MIC50 (Ruminococcus torques): 0.25 µg/mL | MIC90 (Ruminococcus torques): 2 µg/mL | MIC [3]: 0.25 µg/mL | MIC50 [3]: 0.25 µg/mL | MIC90 [3]: 0.5 µg/mL | MIC [4]: 0.25 µg/mL | MIC50 [4]: 0.25 µg/mL | MIC90 [4]: 2 µg/mL | MIC50 (Fusobacterium nucleatum): 0.25 µg/mL | MIC90 (Fusobacterium nucleatum): 0.25 µg/mL | MIC (Porphyromonas): 0.25 µg/mL | MIC50 (Porphyromonas): 0.25 µg/mL | MIC90 (Porphyromonas): 0.5 µg/mL | MIC (Bifidobacterium breve): 0.25 µg/mL | MIC50 (Bifidobacterium breve): 0.25 µg/mL | MIC90 (Bifidobacterium breve): 2 µg/mL | MIC (Clostridium spiroforme): 0.25 µg/mL | MIC50 (Clostridium spiroforme): 0.25 µg/mL | MIC90 (Clostridium spiroforme): 1 µg/mL | MIC (Eubacterium saburreum): 0.25 µg/mL | MIC50 (Eubacterium saburreum): 0.25 µg/mL | MIC90 (Eubacterium saburreum): 2 µg/mL | MIC (Clostridium leptum): 0.25 µg/mL | MIC50 (Clostridium leptum): 0.25 µg/mL | MIC90 (Clostridium leptum): 1 µg/mL | MIC [5]: 0.25 µg/mL | MIC50 [5]: 0.25 µg/mL | MIC90 [5]: 1 µg/mL | MIC (Fusobacterium mortiferum [6]): 0.25 µg/mL | MIC50 (Fusobacterium mortiferum [6]): 0.25 µg/mL | MIC90 (Fusobacterium mortiferum [6]): 1 µg/mL | MIC (Parvimonas micra): 0.25 µg/mL | MIC50 (Parvimonas micra): 0.25 µg/mL | MIC90 (Parvimonas micra): 2 µg/mL | MIC (Anaerococcus tetradius): 0.25 µg/mL | MIC50 (Anaerococcus tetradius): 0.25 µg/mL | MIC90 (Anaerococcus tetradius): 2 µg/mL | MIC50 (Bacteroides stercoris): 2 µg/mL | MIC90 (Bacteroides stercoris): 16 µg/mL | MIC (Bifidobacterium dentium): 0.25 µg/mL | MIC50 (Bifidobacterium dentium): 0.25 µg/mL | MIC90 (Bifidobacterium dentium): 2 µg/mL | MIC (Porphyromonas somerae): 0.25 µg/mL | MIC50 (Porphyromonas somerae): 0.25 µg/mL | MIC90 (Porphyromonas somerae): 0.5 µg/mL | MIC (Bifidobacterium bifidum): 0.25 µg/mL | MIC50 (Bifidobacterium bifidum): 0.25 µg/mL | MIC90 (Bifidobacterium bifidum): 2 µg/mL | MIC (Bifidobacterium longum): 0.25 µg/mL | MIC50 (Bifidobacterium longum): 0.25 µg/mL | MIC90 (Bifidobacterium longum): 2 µg/mL | MIC [7]: 0.25 µg/mL | MIC50 [7]: 0.25 µg/mL | MIC90 [7]: 1 µg/mL | MIC50 (Bacteroides fragilis): 1 µg/mL | MIC90 (Bacteroides fragilis): 16 µg/mL | MIC (Collinsella aerofaciens): 0.25 µg/mL | MIC50 (Collinsella aerofaciens): 0.25 µg/mL | MIC90 (Collinsella aerofaciens): 2 µg/mL | MIC ([Clostridium] innocuum): 0.25 µg/mL | MIC50 ([Clostridium] innocuum): 0.25 µg/mL | MIC90 ([Clostridium] innocuum): 0.5 µg/mL | MIC (Finegoldia magna): 0.25 µg/mL | MIC50 (Finegoldia magna): 0.25 µg/mL | MIC90 (Finegoldia magna): 2 µg/mL | MIC (Tissierella praeacuta): 0.25 µg/mL | MIC50 (Tissierella praeacuta): 0.25 µg/mL | MIC90 (Tissierella praeacuta): 1 µg/mL | MIC (Clostridium sporogenes): 0.25 µg/mL | MIC50 (Clostridium sporogenes): 0.25 µg/mL | MIC90 (Clostridium sporogenes): 1 µg/mL | MIC (Propionibacterium avidum): 0.25 µg/mL | MIC50 (Propionibacterium avidum): 0.25 µg/mL | MIC90 (Propionibacterium avidum): 2 µg/mL | MIC (Clostridium cadaveris): 0.25 µg/mL | MIC50 (Clostridium cadaveris): 0.25 µg/mL | MIC90 (Clostridium cadaveris): 1 µg/mL | MIC50 (Desulfovibrio piger): 4 µg/mL | MIC90 (Desulfovibrio piger): 32 µg/mL | MIC [8]: 0.25 µg/mL | MIC50 [8]: 0.25 µg/mL | MIC90 [8]: 2 µg/mL | MIC [9]: 0.25 µg/mL | MIC50 [9]: 0.25 µg/mL | MIC90 [9]: 1 µg/mL | MIC [10]: 0.25 µg/mL | MIC50 [10]: 0.25 µg/mL | MIC90 [10]: 2 µg/mL
